# “Also recorded” adds a separate entry of the source. Ends that are not written are not given here.
# What was measured:
# [1] = tested on: microorganisms; test: Morphology, biofilm and growth disrupting peptides (Table 5); type: cell-based; parameters: key: A: Peptide aggregates; B: Less hyphal formation; Clumps; Diffuse clumps and small polyps; F: Diffuse growth; H: Thin; I: Growth inhibition; Microcolony formation; Rippled; Small polyps; Thick; W: Halo formation on top, microlonies on bottom
# Excerpt: In certain embodiments peptides that induce alterations in phenotype or other biological activities can also be used as antimicrobial effector moieties.
# [2] = tested on: microorganisms; test: Peptide activities: targeting/binding, antimicrobial, growth or phenotype altering (Tables 7, 8); type: cell-based; details: peptides having multiple activities
# [3] = tested on: microorganisms; test: Targeting peptide binding to target microorganisms (Tables 3, 10, 12); details: microorganism(s) the targeting peptide binds, preferably 1x PBS
# [4] = binding in aqueous buffers varied with peptide solubility
# [5] = binding in aqueous buffers that varied with peptide solubility
Substance,"Organism, effect ([1]; S. pneumoniae)",Activities [2],"Target(s) [3, 4]","Organism, effect: M. luteus [1]","Organism, effect: MRSA ([1]; MRSA)","Organism, effect: S. epidermidis ([1]; S. epidermidis)",further results
PF-447: peptide having multiple activities (IDKSRNKDQFSHIFGLYNICSG; Peptide with targeting and/or antimicrobial activity),S. pneumoniae (C),G B,S. epidermidis; also recorded: M. luteus; also recorded: E. coli; also recorded: S. pneumoniae,,,,"Organism, effect ([1]; E. faecalis): E. faecalis (C); Organism, effect ([1]; MRSA): MRSA (C); Organism, effect ([1]; S. epidermidis): S. epidermidis (C)"
PF-457: peptide having multiple activities (INKYHHIA; Peptide with targeting and/or antimicrobial activity),S. pneumoniae (M),G B,C. albicans; also recorded: S. pneumoniae; also recorded: E. faecalis; also recorded: C. jeikeium,,,,
PF-051: peptide having multiple activities (RFFNFEIKKSTKVDYVFAHVDLSDV; Peptide with targeting and/or antimicrobial activity),,G B,,M. luteus (C),MRSA (D),S. epidermidis (D),"Organism, effect: S. mutans ([1]; S. mutans, class symbol): S. mutans (D); Organism, effect: S. pneumoniae ([1]; S. pneumoniae): S. pneumoniae (D); Target(s) [3, 5]: S. epidermidis and M. luteus and P. aeruginosa and C. albicans and MRSA and S. pneumoniae and E. faecalis"
PF-003: peptide having multiple activities (MNNWIKVAQISVTVINEVIDIMKEKQNGGK; Peptide with targeting and/or antimicrobial activity),,G B,,M. luteus (A),MRSA (R),S. epidermidis (D),"Organism, effect: C. jeikeium ([1]; C. jeikeium): C. jeikeium (A); Target(s) [3, 5]: S. epidermidis and M. luteus and P. mirabilis and C. albicans and MRSA and C. jeikeium"
PF-370: peptide having multiple activities (chain 1 VIFLHKESGNLKEIFY; chain 2 VIFLHKESGNLKEIFY; Peptide with targeting and/or antimicrobial activity),,G B,S. epidermidis; also recorded: E. coli; also recorded: P. aeruginosa; also recorded: E. faecalis; also recorded: C. jejuni,,MRSA (C),S. epidermidis (C),"Organism, effect: E. coli ([1]; E. coli): E. coli (R)"
PF-528: peptide having multiple activities (LVDVVVLIRRHLPKSCS-NH2),S. pneumoniae (R),G B,S. epidermidis and P. aeruginosa and C. albicans and MRSA and S. pneumoniae and E. faecalis,,,,"Organism, effect ([1]; C. albicans): C. albicans (C); Organism, effect ([1]; E. coli): E. coli (H); Organism, effect ([1]; MRSA): MRSA (H); Organism, effect ([1]; S. epidermidis): S. epidermidis (H)"
PF-403: peptide having multiple activities (chain 1 LLSTEQLLKYYDGETFDGFQLPSNE; chain 2 LLSTEQLLKYYDGETFDGFQLPSNE; Peptide with targeting and/or antimicrobial activity),,G B,E. coli; also recorded: P. aeruginosa; also recorded: S. pneumoniae; also recorded: E. faecalis; also recorded: C. jeikeium; also recorded: C. jejuni,,MRSA (M),S. epidermidis (M),"Organism, effect: E. coli ([1]; E. coli): E. coli (R)"
PF-175: peptide having multiple activities (RRRPAGQRPEKASQAMIAA; Peptide with targeting and/or antimicrobial activity),,G B,S. epidermidis; also recorded: E. faecalis,M. luteus (S),,,"Organism, effect: B. subtilis ([1]; B. subtilis): B. subtilis (D); Organism, effect: C. albicans ([1]; C. albicans): C. albicans (B); Organism, effect: C. jejuni ([1]; C. jejuni): C. jejuni (M); Organism, effect: S. pneumoniae ([1]; S. pneumoniae): S. pneumoniae (A)"

# — US20110039763A1, “TARGETED ANTIMICROBIAL MOIETIES” (C3 JIAN, INC., priority 2009, published 2011)
